System: behaviorally-diagnosed psychiatric conditions (DSM categories)
Design: species or system human
Conditions: in vivo
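Wherever use code of agent in 301.7 Antisocial Personality Disorder is given: N marks novel agent found effective in subject subgroups.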
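Wherever use code of agent in 301.83 Borderline Personality Disorder is given: N marks novel agent found effective in subject subgroups.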
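Wherever use in 307.50 Eating Disorder NOS is given: N marks novel agent found effective in subject subgroups.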
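Wherever use in 307.51 Bulimia Nervosa is given: N marks novel agent found effective in subject subgroups.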

COC(=O)C(c1ccccc1)C1CCCCN1 (centres unmarked) [METHYLPHENIDATE]
N: use code of agent in 294.9 Cognitive Disorder NOS | use code of agent in 296.90 Mood Disorder NOS | use code of agent in 300.4 Dysthymic Disorder | use code of agent in 301.13 Cyclothymic Disorder | use code of agent in 307.1 Anorexia Nervosa | use code of agent in 307.50 Eating Disorder NOS | use code of agent in 307.51 Bulimia Nervosa | use code of agent in 312.30 Impulse-Control Disorder NOS | use code of agent in 312.31 Pathological Gambling | use code of agent in 312.39 Trichotillomania | use code of agent in 312.8 Conduct Disorder | use code of agent in 313.81 Oppositional Defiant Disorder | use code of agent in 315.9 Learning Disorder NOS

N[C@@H](Cc1ccc(O)cc1)C(=O)O [TYROSINE]
N: use in Dementia of the Alzheimer's Type

NC1=NC(=O)C(c2ccccc2)O1 (centres unmarked) [PEMOLINE]
N: use code of agent in 294.8 Amnestic Disorder | use code of agent in 294.9 Cognitive Disorder NOS | use code of agent in 296.90 Mood Disorder NOS | use code of agent in 300.4 Dysthymic Disorder | use code of agent in 301.13 Cyclothymic Disorder | use code of agent in 307.1 Anorexia Nervosa | use code of agent in 307.50 Eating Disorder NOS | use code of agent in 307.51 Bulimia Nervosa | use code of agent in 312.30 Impulse-Control Disorder NOS | use code of agent in 312.31 Pathological Gambling | use code of agent in 312.8 Conduct Disorder | use code of agent in 313.81 Oppositional Defiant Disorder | use code of agent in 315.9 Learning Disorder NOS | use of agent in DSM category (C/N code)

NNCCc1ccccc1 [PHENALZINE]
N: use code of agent in 301.20 Schizoid Personality Disorder | use code of agent in 301.4 Obsessive-Compulsive Personality Disorder | use code of agent in 301.50 Histrionic Personality Disorder | use code of agent in 301.6 Dependent Personality Disorder | use code of agent in 301.7 Antisocial Personality Disorder | use code of agent in 301.82 Avoidant Personality Disorder | use code of agent in 301.83 Borderline Personality Disorder | use code of agent in 302.71 Hypoactive Sexual Desire Disorder | use code of agent in 307.42 Primary Insomnia | use code of agent in 311 Depressive Disorder NOS | use code of agent in 316 Psychological Factors Affecting Medical Condition, Atypical Asthma | use code of agent in 316 Psychological Factors Affecting Medical Condition, Neurodermatitis | use code of agent in Bipolar I Disorder | use code of agent in Major Depressive Disorder, Recurrent | use code of agent in Major Depressive Disorder, Single Episode | use in 294.9 Cognitive Disorder NOS | use in 296.89 Bipolar II Disorder | use in 296.90 Mood Disorder NOS | use in 299.80 Pervasive Developmental Disorder NOS | use in 300.00 Anxiety Disorder NOS | use in 300.22 Agoraphobia Without History of Panic Disorder | use in 300.23 Social Phobia | use in 300.29 Specific Phobia | use in 300.3 Obsessive-Compulsive Disorder | use in 300.4 Dysthymic Disorder | use in 301.13 Cyclothymic Disorder | use in 307.1 Anorexia Nervosa | use in 307.50 Eating Disorder NOS | use in 307.51 Bulimia Nervosa | use in 309.21 Separation Anxiety Disorder | use in 309.81 Posttraumatic Stress Disorder | use in 312.31 Pathological Gambling | use in 312.34 Intermittent Explosive Disorder | use in 312.39 Trichotillomania | use in 312.8 Conduct Disorder | use in 313.81 Oppositional Defiant Disorder | use in 315.9 Learning Disorder NOS | use in Attention-Deficit/Hyperactivity Disorder | use in Panic Disorder | use of the agent in the diagnostic category (C = common use; N = novel use from rEEG features)

COC(=O)C(c1ccccc1)C1CCCCN1 (centres unmarked) [SR METHYLPHENIDATE]
N: use code of agent in 294.8 Amnestic Disorder | use code of agent in 296.89 Bipolar II Disorder | use code of agent in 312.34 Intermittent Explosive Disorder | use code of agent in Dementia of the Alzheimer's Type | use in 299.80 Pervasive Developmental Disorder NOS | use in 300.00 Anxiety Disorder NOS | use in 300.02 Generalized Anxiety Disorder | use in 300.22 Agoraphobia Without History of Panic Disorder | use in 300.23 Social Phobia | use in 300.29 Specific Phobia | use in 300.3 Obsessive-Compulsive Disorder | use in 307.22 Chronic Motor or Vocal Tic Disorder | use in 307.9 Communication Disorder NOS | use in 309.21 Separation Anxiety Disorder | use in 309.81 Posttraumatic Stress Disorder | use in Panic Disorder | use of agent in DSM category (C/N code) | use of the agent in the diagnostic category (C = common use; N = novel use from rEEG features)

Nc1nnc(-c2cccc(Cl)c2Cl)c(N)n1 [LAMOTRIGINE]
N: use in Dementia of the Alzheimer's Type

N[C@@H](Cc1ccccc1)C(=O)O [PHENYLALANINE, reference compound]
N: agent found effective in 299.00 Autistic Disorder | agent found effective in 300.00 Anxiety Disorder NOS | agent found effective in 300.02 Generalized Anxiety Disorder | agent found effective in 300.22 Agoraphobia Without History of Panic Disorder | agent found effective in 300.23 Social Phobia | agent found effective in 300.29 Specific Phobia | agent found effective in 300.3 Obsessive-Compulsive Disorder | agent found effective in 309.81 Posttraumatic Stress Disorder | agent found effective in Panic Disorder | use in Dementia of the Alzheimer's Type

CC(NC(C)(C)C)C(=O)c1cccc(Cl)c1 (centres unmarked) [BUPROPRION (REGULAR TABS)]
N: use code of agent in 301.20 Schizoid Personality Disorder | use code of agent in 301.22 Schizotypal Personality Disorder | use code of agent in 301.4 Obsessive-Compulsive Personality Disorder | use code of agent in 301.50 Histrionic Personality Disorder | use code of agent in 301.6 Dependent Personality Disorder | use code of agent in 301.7 Antisocial Personality Disorder | use code of agent in 301.82 Avoidant Personality Disorder | use code of agent in 301.83 Borderline Personality Disorder | use code of agent in 302.71 Hypoactive Sexual Desire Disorder | use code of agent in 307.42 Primary Insomnia | use code of agent in 311 Depressive Disorder NOS | use code of agent in 316 Psychological Factors Affecting Medical Condition, Atypical Asthma | use code of agent in 316 Psychological Factors Affecting Medical Condition, Neurodermatitis | use code of agent in Bipolar I Disorder | use in 294.8 Amnestic Disorder | use in 294.9 Cognitive Disorder NOS | use in 296.89 Bipolar II Disorder | use in 299.80 Pervasive Developmental Disorder NOS | use in 300.00 Anxiety Disorder NOS | use in 300.02 Generalized Anxiety Disorder | use in 300.22 Agoraphobia Without History of Panic Disorder | use in 300.23 Social Phobia | use in 300.29 Specific Phobia | use in 300.3 Obsessive-Compulsive Disorder | use in 301.13 Cyclothymic Disorder | use in 307.1 Anorexia Nervosa | use in 307.50 Eating Disorder NOS | use in 307.51 Bulimia Nervosa | use in 307.9 Communication Disorder NOS | use in 309.21 Separation Anxiety Disorder | use in 309.81 Posttraumatic Stress Disorder | use in 312.30 Impulse-Control Disorder NOS | use in 312.31 Pathological Gambling | use in 312.34 Intermittent Explosive Disorder | use in 312.39 Trichotillomania | use in 312.8 Conduct Disorder | use in 313.81 Oppositional Defiant Disorder | use in 315.9 Learning Disorder NOS | use in Attention-Deficit/Hyperactivity Disorder | use in Panic Disorder | use of the agent in the diagnostic category (C = common use; N = novel use from rEEG features)

N[C@@H]1C[C@H]1c1ccccc1 [PARNATE, reference compound]
N: use code of agent in 301.20 Schizoid Personality Disorder | use code of agent in 301.4 Obsessive-Compulsive Personality Disorder | use code of agent in 301.50 Histrionic Personality Disorder | use code of agent in 301.6 Dependent Personality Disorder | use code of agent in 301.7 Antisocial Personality Disorder | use code of agent in 301.82 Avoidant Personality Disorder | use code of agent in 301.83 Borderline Personality Disorder | use code of agent in 302.71 Hypoactive Sexual Desire Disorder | use code of agent in 307.42 Primary Insomnia | use code of agent in 311 Depressive Disorder NOS | use code of agent in 316 Psychological Factors Affecting Medical Condition, Atypical Asthma | use code of agent in 316 Psychological Factors Affecting Medical Condition, Neurodermatitis | use code of agent in Bipolar I Disorder | use code of agent in Major Depressive Disorder, Recurrent | use code of agent in Major Depressive Disorder, Single Episode | use in 294.9 Cognitive Disorder NOS | use in 296.89 Bipolar II Disorder | use in 296.90 Mood Disorder NOS | use in 299.80 Pervasive Developmental Disorder NOS | use in 300.00 Anxiety Disorder NOS | use in 300.02 Generalized Anxiety Disorder | use in 300.22 Agoraphobia Without History of Panic Disorder | use in 300.23 Social Phobia | use in 300.29 Specific Phobia | use in 300.3 Obsessive-Compulsive Disorder | use in 300.4 Dysthymic Disorder | use in 301.13 Cyclothymic Disorder | use in 307.1 Anorexia Nervosa | use in 307.50 Eating Disorder NOS | use in 307.51 Bulimia Nervosa | use in 309.21 Separation Anxiety Disorder | use in 309.81 Posttraumatic Stress Disorder | use in 312.30 Impulse-Control Disorder NOS | use in 312.31 Pathological Gambling | use in 312.34 Intermittent Explosive Disorder | use in 312.39 Trichotillomania | use in 312.8 Conduct Disorder | use in 313.81 Oppositional Defiant Disorder | use in 315.9 Learning Disorder NOS | use in Attention-Deficit/Hyperactivity Disorder | use in Panic Disorder | use of the agent in the diagnostic category (C = common use; N = novel use from rEEG features)

O=C(NCCN1CCOCC1)c1ccc(Cl)cc1 [MOCLOBEMIDE]
N: use code of agent in 302.71 Hypoactive Sexual Desire Disorder | use code of agent in 316 Psychological Factors Affecting Medical Condition, Hypertensive Disorder NOS

Cc1nc2n(c(=O)c1CCN1CCC(c3noc4cc(F)ccc34)CC1)CCCC2 [RISPERDONE]
N: use in 300.22 Agoraphobia Without History of Panic Disorder

CC(C)(N)Cc1ccccc1 [PHENTERMINE]
N: use code of agent in 294.9 Cognitive Disorder NOS | use code of agent in 300.4 Dysthymic Disorder | use code of agent in 307.50 Eating Disorder NOS | use code of agent in 312.8 Conduct Disorder | use of agent in DSM category (C/N code)
